Measured values taken from ChEMBL document CHEMBL1154159, “Didanosine ester prodrugs: synthesis, albumin binding properties and pharmacokinetic studies in rats” (Eur J Med Chem, 2009).

Key:
[1] = Chemical stability in phosphate buffered saline assessed as compound degradation at 0.05 M at pH 7.4 at 40 degC after 1 hr by HPLC; type: physicochemical; details: buffer, pH 7.4, 1 h
[2] = Chemical stability in phosphate buffered saline assessed as compound degradation at 0.05 M at pH 7.4 at 5 degC after 1 hr by HPLC; type: physicochemical; details: buffer, pH 7.4, 1 h
[3] = Chemical stability in phosphate buffered saline assessed as compound degradation at 0.05 M at pH 7.4 at 25 degC after 1 hr by HPLC; type: physicochemical; details: buffer, pH 7.4, 1 h
[4] = Clearance in Rowet nu/nu rat plasma at 15 mg/kg, iv after 5 mins to 6 hrs; type: ADME, organism-based; parameters: dose 15 mg/kg, route intravenous
[5] = Chemical stability in phosphate buffered saline assessed as compound degradation at 0.05 M at pH 7.4 at 5 to 40 degC after 14 days by HPLC; type: physicochemical; details: buffer, pH 7.4, 336 h
[6] = AUC (0 to 360 mins) in Rowet nu/nu rat plasma at 15 mg/kg, iv after 5 mins to 6 hrs; type: ADME, organism-based; parameters: time < 6 hr, dose 15 mg/kg, route intravenous
[7] = AUC (0 to 360 mins) in Rowet nu/nu rat plasma at […], iv after 5 mins to 6 hrs; type: ADME, organism-based; parameters: time < 6 hr, route intravenous
[8] = Clearance in Rowet nu/nu rat plasma at […], iv after 5 mins to 6 hrs; type: ADME, organism-based
[9] = Half life in rat at 125 mg/kg/hr, iv after 2 hrs; type: ADME, organism-based; parameters: route intravenous; details: in vivo

Structure (SMILES) | Stability [1] | Stability [2] | Stability [3] | clearance [4] | Stability [5] | AUC(0-t) at 6 h [6] | AUC(0-t) at 6 h [7] | clearance [8] | half-life [9]
O=C(O)CCCCCCCC(=O)OC[C@H]1CC[C@@H](n2cnc3c(=O)[nH]cnc32)O1 | Stable | Stable | Stable | 107 mL/min/kg | Unstable | 2680 ng·h/mL |  |  | 
O=C(O)CCCCC(=O)OC[C@H]1CC[C@@H](n2cnc3c(=O)[nH]cnc32)O1 | Stable | Stable | Stable |  | Unstable |  |  |  | 
O=C(O)CCCCCCCCCCC(=O)OC[C@H]1CC[C@@H](n2cnc3c(=O)[nH]cnc32)O1 | Stable | Stable | Stable |  | Unstable |  |  |  | 
O=c1[nH]cnc2c1ncn2[C@H]1CC[C@@H](CO)O1 [DIDANOSINE] |  |  |  |  |  |  | 2100 ng·h/mL | 134 mL/min/kg | 1 h
